Experimental data reported in article PMC6337261, “Short Peptides with Uncleavable Peptide Bond Mimetics as Photoactivatable Caspase-3 Inhibitors” (Molecules, 2019).

Key:
caspase-3 [1] = assay: ESI-MS on purified caspase-3 (covalent modification); assay type: binding; conditions: 10a under irradiation at 365 nm
Excerpt: Our probes were designed to irreversibly photocrosslink to caspase-3. In order to show covalent complex formation, we made use of the alkyne function located at the N-terminus of all probes by installing a tetramethyl rhodamine fluorophore (TAMRA) via copper(I)-catalyzed azide alkyne cycloaddition. […] To exclude that this observation was due to our gel-based read-out, we also performed mass spectrometry experiments. […] This mass shift corresponded to the covalent modification (Figure 3C).
Intact proteins were analyzed on an orbitrap Fusion Lumos mass spectrometer equipped with a nanoelectrospray ion source (Thermo Fischer, Dreieich, Germany). Sample desalting was performed using Amicon Ultra-0.5 3K NMWL centrifugal filters (Merck Millipore, Darmstadt, Germany) according to the manufacturer’s protocol and samples were brought to a final concentration of approx. 1 pmol/µL (in 25% MeOH and 0.5% formic acid). […]
Figure 3 Non-covalent inhibition of caspase-3 by compounds 9 and 10. […] (G) UV irradiation of ψ(CH2NH) peptides 14 and 15 in the presence of benzophenone leads to inhibition of caspase-3, as monitored by competitive ABPP. […] Ac-DEVD-aldehyde (100 nM) was used as a control compound, whereas 9a and 10a (10 μM) were irradiated for 10 min and reacted with sodium bisulfite for an additional 20 min before 30 min incubation with caspase-3 and read-out with a fluorescent caspase ABP.

caspase-3 [2] = assay: Fluorogenic substrate (Ac-DEVD-AMC) cleavage assay; assay type: biochemical; conditions: 10 μM compound, 2 nM caspase-3, 50 μM Ac-DEVD-AMC, HEPES pH 7.4 with 10 mM DTT, n = 2
Protocol: To check whether our probes function as inhibitors, competitive ABPP [28] was performed. Recombinant caspase-3 was incubated with probes 9a–10c, 11a and 12a with or without irradiation at 365 nm, followed by labeling of residually active caspase-3 with the fluorescent, caspase-directed activity-based probe (ABP) SV149, a tetramethylrhodamine derivative of KMB-01 [29]. Caspase activity itself was not affected by UV irradiation, as shown by bands of equal intensity with and without UV light (Figure 2A). […] To confirm inhibition, we also performed substrate cleavage assays using the fluorogenic aminomethyl coumarin substrate Ac-DEVD-AMC. […] Inhibition of active caspases could also be achieved in an apoptotic cell lysate (Figure 2D).
Purified caspase-3 (2 nM) was pre-activated by incubating in caspase reaction buffer (20 mm HEPES pH 7.4, 100 mM NaCl, 1 mM EDTA, 10% sucrose (w/v), 0.1% CHAPS (w/v), 10 mM DTT) for 15 min at 37 °C. Inhibitors 9a, 10a, and DMSO (control) were incubated with the caspase-3 at 10 μM final concentration. One set was irradiated with a handheld UV lamp at 365 nm for 30 min at room temperature whereas the control set was not irradiated. After 30 min, 99 μL of the sample was added to 1 μL of Ac-DEVD-AMC fluorogenic substrate (5 mM in dmso; 50 μM final concentration) in a black 96 well plate. The fluorescence intensity was read using an iD3 SpectraMax platereader (Molecular Devices; excitation wavelength: 340 nm; emission wavelength: 475 nm). The experiment was performed in duplicate. Activity was determined as the slope from the linear part of the progress curve by using GraphPad Prism.
Figure 2 Inhibition of caspase-3. (A) Competitive activity-based protein profiling (ABPP) experiments using ψ(CH2NH) or triazolo peptide derivatives 9–12 with or without irradiation. Compounds 9a–12a were used at 10 μM final concentration, 9b, 9c, 10b and 10c at 100 μM. Inh = caspase inhibitor biotin-DEVD-AOMK, used at 100 nM concentration. (B) Representative progress curves of fluorescence produced by Ac-DEVD-AMC (50 μM) cleavage by caspase-3, irradiated with or without 10 μM of the indicated compounds. (C) Bar graph of residual caspase-3 activity of replicate experiments (n = 2) of those in (B). (D) Inhibition of executioner’s caspase-3 and -7 in lysates of HEK293 cells, treated with cytochrome c/dATP to induce apoptosis.

Substance: Hexynoyl-Asp-Glu-Val-Aspψ(CH2NH)-Ala-Bpa-NH2 [10a]
- Covalent modification of caspase-3 (mass shift, ESI-MS) (caspase-3 [1]): did not reveal any modification
- Inhibition of Ac-DEVD-AMC cleavage by caspase-3 (caspase-3 [2]; irradiated at 365 nm for 30 min at room temperature): complete blockage of substrate processing
- Inhibition of Ac-DEVD-AMC cleavage by caspase-3 (caspase-3 [2]; not irradiated): little to no inhibition
